Values of other authors as cited in patent US20120220783A1, “SALTS OF SUNITINIB” (RANBAXY LABORATORIES LIMITED, priority 2009, published 2012).

Settings: crystalline form, statement of WO 2009/104021

Structure (SMILES): CCN(CC)CCNC(=O)c1c(C)[nH]c(/C=C2\C(=O)Nc3ccc(F)cc32)c1C.O=C(O)C[C@H](O)C(=O)O [Form II of sunitinib L-malate, butanedioic acid, hydroxy-, (2S)-, compound with N-[2-(diethylamino)ethyl]-5-[(Z)-(5-fluoro-1,2-dihydro-2-oxo-3H-indol-3-ylidine)methyl]-2,4-dimethyl-1H-pyrrole-3-carboxamide (1:1)]
- thermodynamic stability / form conversion (appears to readily convert to Form I): thermodynamically unstable
- hygroscopicity: hygroscopic
